Measurements: patent US3949075A, “Anti-microbial compounds of 2', 4' substituted anilides of substituted nitrosalicylic acid for quadruped animals” (Ferro Corporation, priority 1974, dated 1976)
Read-outs that look alike come from different tables or passages of the source.

Legend:
[1] = test system: Haemonchus contortus; experiment: Percent of Haemonchus destroyed or expelled in infected sheep (egg count after treatment); format: in vivo, Haemonchus contortus (in sheep)
Experimental: Two groups of sheep were used in the tests. One group was used as a non-medicated control, while the other group was treated with the compound under investigation. Helminth-free young lambs were infected with about 10,000 filariform larvae of Haemonchus contortus. In three weeks when the infection became apparent, egg counts were made to determine the density of the worm burden.
The egg count was carried out using the following modified Stoll method. Three grams of sheep feces were taken rectally from each animal and placed in a Stoll flask. To each flask, tap water was added to the top line. The fecal pellets were too hard to break down, the flasks were closed with rubber stoppers and kept in the refrigerator for several hours. The flasks were thoroughly shaken and a 1 ml. sample was drawn from the middle using a wide mouth pipette. This 1 ml. sample was transferred to an 8 ml. plastic tube, to which enough saturated sodium chloride solution was added to reach the rim. The tubes were then centrifuged for 10 minutes at 1500 r.p.m. Then sodium chloride solution was added with a medicine dropper forming a concave miniscus. A cover glass was carefully added and the tubes were kept in a refrigerator for ten to twenty minutes. During that period, the nematode ova flowed upward and adhered to the bottom of the cover glass slip. At the end of the 20-minute period, the cover slip was carefully detached from the miniscus and transferred to a microscopic slide. The ova were then counted under a microscope equipped with 10X ocular and 10X objective lens. Each ovum under the microscope represented 20 ova in the sample.
Animals with sufficiently high egg counts were taken out of the pool and housed in experimental pens. Since the salicylanilides of the present invention are water insoluble, the compounds were first ground using a mortar and pestle and then were placed in a carboxymethyl cellulose solution. The particles were further micronized ultrasonically. The compound was then administered to two or three animals by Oesophageal gavage. Control, untreated animals, received only the carboxymethyl cellulose solution in a similar manner. On the sixth and seventh day after treatment, fecal pellets were taken from the rectum of the control as well as the treated animals and egg counts were made.
The results of tests on sheep in a manner described, supra, using compounds of the present invention are given in Table 1, Examples 5 through 13. The numbers in the column headed "Haemonchus (15 mg/kg)" refer to the percent of parasites destroyed or expelled when the indicated compound was introduced into the rumen of sheep at a dosage of 15 milligrams per kilogram of body weight. The values under "Tolerance (mg/kg)" refer to the highest test dosage in the milligrams of anthelmintic per kilogram of body weight at which the sheep developed no toxic symptoms. "Tol." is an abbreviation for "tolerated". The symbols R1 and R2 refer to those of Formula I in these and other following examples.
(§1) The data of the tables were generated using procedures previously described. The compounds tested are disubstituted and, except for Example 50 which is dibromo, are dichloro. Where the position for the substituents is other than 2' and 4', it is indicated. Under the indicated microorganisms, the values given in this and the following tables, should be read as: percentage of microorganism killed/dose in milligrams per kilogram of body weight. Under "Tolerance", the term "Tol." means "tolerated", "Tox." means "toxic", and "Sym." means "symptoms of toxic reaction", all at the dosage value which follows. It will be appreciated that there is no sharp toxicity end point in determining toxicity to living sheep.

[2] = test system: Fasciola hepatica; experiment: Test for activity against liver flukes, Fasciola hepatica, in infected sheep; format: in vivo; settings: Fasciola hepatica; sheep, 15 mg/kg; Tables VIII-XI; read-out: Fasciola hepatica, percentage of microorganism killed
Experimental: Test for activity against liver flukes were conducted as follows:
Eggs of Fasciola hepatica were collected from the bile of donor sheep. The eggs were embryonated and snails were infected (the genus Lymnaea serves as intermediate host) to produce Metacercariae which are the infective forms for sheep. Each sheep was infected with 250 metacercariae intraruminally. When the infection became patent in ca. 80 days, egg counts were carried out to determine the degree of worm burden. The liver was processed to recover F. hepatica in the untreated and treated sheep.
as §1

[3] = Haemonchus contortus, sheep, 15 mg/kg, Table V, read-out: Effectiveness at 15 mg/kg against Haemonchus
[4] = Haemonchus contortus, sheep, 15 mg/kg, Tables VIII-XI, read-out: Haemonchus, percentage of microorganism killed
[5] = Haemonchus contortus, read-out: Effectiveness at 15 mg/kg against Haemonchus, sheep, 15 mg/kg, Table V
[6] = Haemonchus contortus, sheep, intrarumenal, 15 mg/kg, Table II, read-out: Effectiveness in removal of Haemonchus

| SMILES | inhibition in vivo at 15 mg/kg [1, 3] [%] | inhibition in vivo at 15 mg/kg [1, 4] [%] | inhibition in vivo at 15 mg/kg [1, 6] [%] | other results |
| --- | --- | --- | --- | --- |
| Cc1c([N+](=O)[O-])cc(C(C)(C)C)c(O)c1C(=O)Nc1cccc(Cl)c1 [31 Cl 3'-substitution] | 0 | 0 | – | – |
| Cc1c([N+](=O)[O-])cc(C(C)(C)C)c(O)c1C(=O)Nc1cccc(I)c1 [33 I 3'-substitution] | – | 14 | – | inhibition in vivo at 15 mg/kg [1, 5]: 0% |
| Cc1c([N+](=O)[O-])cc(C(C)(C)C)c(O)c1C(=O)Nc1cccc(C(F)(F)F)c1 [34 CF3 3'-substitution] | 2 | 2 | – | – |
| Cc1c([N+](=O)[O-])cc(C(C)(C)C)c(O)c1C(=O)Nc1ccc(I)cc1 [Example 9] | – | 93 | – | inhibition in vivo at 15 mg/kg [2]: 0%; inhibition in vivo at 15 mg/kg [1, 5]: 93%; inhibition in vivo at 5 mg/kg ([1]; Haemonchus contortus, sheep, 5 mg/kg, Tables VIII-XI, read-out: Haemonchus, percentage of microorganism killed): 22%; Haemonchus (2 mg/kg), percent of parasites destroyed or expelled ([1]; sheep, into rumen, 2 mg/kg, Table 1): 14%; Haemonchus (5 mg/kg), percent of parasites destroyed or expelled ([1]; sheep, into rumen, 5 mg/kg, Table 1): 22%; Haemonchus (15 mg/kg), percent of parasites destroyed or expelled ([1]; sheep, into rumen, 15 mg/kg, Table 1): 93% |
| Cc1c([N+](=O)[O-])cc(C(C)(C)C)c(O)c1C(=O)Nc1ccccc1C(F)(F)F [Example 14] | 0 | 0 | 0 | – |
| Cc1c([N+](=O)[O-])cc(C(C)(C)C)c(O)c1C(=O)Nc1ccccc1F [Example 15] | – | – | 0 | – |
| Cc1c([N+](=O)[O-])cc(C(C)(C)C)c(O)c1C(=O)Nc1ccccc1Cl [Example 16] | 33 | 33 | 33 | – |
| Cc1c([N+](=O)[O-])cc(C(C)(C)C)c(O)c1C(=O)Nc1ccccc1Br [Example 17] | 0 | 0 | 0 | – |
| Cc1c([N+](=O)[O-])cc(C(C)(C)C)c(O)c1C(=O)Nc1ccccc1I [Example 18] | – | 0 | 0 | inhibition in vivo at 15 mg/kg [1, 5]: 0% |
| Cc1c([N+](=O)[O-])cc(C(C)(C)C)c(O)c1C(=O)Nc1ccc(S(N)(=O)=O)cc1 [Example 19] | – | – | 0 | – |
| CCOC(=O)c1ccc(NC(=O)c2c(C)c([N+](=O)[O-])cc(C(C)(C)C)c2O)cc1 [Example 20] | – | – | 18 | – |
| Cc1ccc(NC(=O)c2c(C)c([N+](=O)[O-])cc(C(C)(C)C)c2O)c(C)c1 [Example 21] | – | – | 13 | – |
| COc1cc(Cl)ccc1NC(=O)c1c(C)c([N+](=O)[O-])cc(C(C)(C)C)c1O [Example 22] | – | – | 10 | – |
